The nature of series [1]: Prodrug stability in rat liver S9. It counts as in vitro ADME. To be noted: Rat Liver S9 (0.5 mg/mL), 2.0 μM, NADPH, 37° C.
Procedure: (§1) The stabilities of prodrugs were evaluated in one or more in vitro systems using a variety of tissue preparations following methods known in the art. The chemical stability of prodrugs in aqueous buffers at pH's of 2.0, 7.4 and 8.0 were also measured. […] Each preparation was incubated with test compound at 37° C. for one hour. Aliquots (50 μL) were removed at 0, 30, and 60 min and quenched with 0.1% trifluoroacetic acid in acetonitrile. Samples were then centrifuged and analyzed by LC/MS/MS (see Example 86 below for method details).
A short description of series [2]: Chemical stability of prodrugs in aqueous buffers. It counts as physicochemical.
Procedure: as §1
The nature of series [3]: Caco-2 homogenate S9 stability. It counts as in vitro ADME. To be noted: Caco-2 S9 (0.5 mg protein per mL), 5 μM, 37° C.
Procedure: Caco-2 Homogenate S9 Stability: Caco-2 cells were grown for 21 days prior to harvesting. Culture medium was removed and cell monolayers were rinsed and scraped off into ice-cold 10 mM sodium phosphate/0.15 M potassium chloride, pH 7.4. Cells were lysed by sonication at 4° C. using a probe sonicator. Lysed cells were then transferred into 1.5 mL centrifuge vials and centrifuged at 9000 g for 20 min at 4° C. The resulting supernatant (Caco-2 cell homogenate S9 fraction) was aliquoted into 0.5 mL vials and stored at −80° C. until used.
For stability studies, prodrug (5 μM) was incubated in Caco-2 homogenate S9 fraction (0.5 mg protein per mL) for 60 min at 37° C. Concentrations of intact prodrug and released baclofen were determined at zero time and 60 minutes using LC/MS/MS.
Series [4] is described as follows: Prodrug stability in human liver S9. It counts as in vitro ADME. Conditions: Human Liver S9 (0.5 mg/mL), 2.0 μM, NADPH, 37° C.
Procedure: as §1
A short description of series [5]: Prodrug stability in human plasma in vitro. It counts as in vitro ADME. To be noted: 2.0 μM, 37° C.
Procedure: as §1
Another series relates to pancreatin. Kind of series: Pancreatin stability. It counts as in vitro ADME, porcine. To be noted: 1% (w/v) pancreatin, 5 μM, pH 7.5, 37° C. How it is done:
Pancreatin Stability: Stability studies were conducted by incubating prodrug (5 μM) with 1% (w/v) pancreatin (Sigma, P-1625, from porcine pancreas) in 0.025 M Tris buffer containing 0.5 M NaCl (pH 7.5) at 37° C. for 60 min. The reaction was stopped by addition of 2 volumes of methanol. After centrifugation at 14,000 rpm for […], the supernatant was removed and analyzed by LC/MS/MS.

On to `CC(=O)OCOC(=O)NC[C@H](CC(=O)[O-])c1ccc(Cl)cc1.[Na+]` [(10), Sodium 4-[(Acetoxymethoxy)carbonylamino]-(3R)-(4-chlorophenyl)-butanoate], for which the “% of Prodrug Remaining after 60 min” value was found to be 0% in series [1], 2% in series [3] and 1% in series [4]. In addition, the “% of Baclofen Released after 60 min” value is on record as 1% in series [2] (aqueous buffer pH 2.0, 37° C.); 3% in series [2] (aqueous buffer pH 7.4, 37° C.); 9% in series [2] (aqueous buffer pH 8.0, 37° C.).
On to `O=C([O-])C[C@@H](CNC(=O)OCOC(=O)c1ccccc1)c1ccc(Cl)cc1.[Na+]` [(12), Sodium 4-[(Benzoyloxymethoxy)carbonylamino]-(3R)-(4-chlorophenyl)-butanoate], for which the “% of Prodrug Remaining after 60 min” value in series [1] worked out at 3%; in series [2] (aqueous buffer pH 2.0, 37° C.), 100%; in series [2] (aqueous buffer pH 7.4, 37° C.), 100%; in series [3], 2%; in series [4], 1%. For the same compound, the “% of Baclofen Released after 60 min” value in series [2] (aqueous buffer pH 2.0, 37° C.) stood at 0%; in series [2] (aqueous buffer pH 7.4, 37° C.) it was 0%; in series [2] (aqueous buffer pH 8.0, 37° C.), 0%; in series [5], 5%; in series [3] it was 100%; in series [4] it was 100%.
Consider `O=C([O-])C[C@@H](CNC(=O)OCOC(=O)C1CCCCC1)c1ccc(Cl)cc1.[Na+]` [(14), Sodium 4-[(Cyclohexanecarboxymethoxy)carbonylamino]-(3R)-(4-chlorophenyl)-butanoate], for which the “% of Prodrug Remaining after 60 min” value was found to be 2% in series [1]; 102% in series [2] (aqueous buffer pH 8.0, 37° C.); 2% in the series with pancreatin; 2% in series [3]; 2% in series [4]. The “% of Baclofen Released after 60 min” value stood at 1% in series [2] (aqueous buffer pH 2.0, 37° C.); 1% in series [2] (aqueous buffer pH 7.4, 37° C.); 2% in series [2] (aqueous buffer pH 8.0, 37° C.).
`CC(=O)OC(OC(=O)NC[C@H](CC(=O)[O-])c1ccc(Cl)cc1)C(C)C.[Na+]` (stereo partly drawn) [(23), Sodium 4-[(1-Acetoxyisobutoxy)carbonylamino]-(3R)-(4-chlorophenyl)-butanoate]: the “% of Prodrug Remaining after 60 min” value in series [1] was found to be 3%; in series [2] (aqueous buffer pH 2.0, 37° C.), 107%; in series [4], 4%. The “% of Baclofen Released after 60 min” value came to 0% in series [2] (aqueous buffer pH 2.0, 37° C.); 1% in series [2] (aqueous buffer pH 7.4, 37° C.); 2% in series [2] (aqueous buffer pH 8.0, 37° C.); 3% in series [5].
As to `CCCC(=O)OC(OC(=O)NC[C@H](CC(=O)[O-])c1ccc(Cl)cc1)C(C)C.[Na+]` (stereo partly drawn) [(27), Sodium 4-[(1-Butanoyloxyisobutoxy)carbonylamino]-(3R)-(4-chlorophenyl)-butanoate], the “% of Prodrug Remaining after 60 min” value was 0% in series [1] and 8% in series [4]. The “% of Baclofen Released after 60 min” value is 0% in series [2] (aqueous buffer pH 2.0, 37° C.); 0% in series [2] (aqueous buffer pH 7.4, 37° C.); 1% in series [2] (aqueous buffer pH 8.0, 37° C.); 12% in series [5]; 9% with pancreatin.
With `CC(OC(=O)NC[C@H](CC(=O)[O-])c1ccc(Cl)cc1)OC(=O)C(C)C.[Na+]` (stereo partly drawn) [(33), Sodium 4-[(1-Isobutanoyloxyethoxy)carbonylamino]-(3R)-(4-chlorophenyl)-butanoate], the “% of Baclofen Released after 60 min” value in series [1] is reported as 101%; in series [2] (aqueous buffer pH 2.0, 37° C.) it was 0%; in series [2] (aqueous buffer pH 7.4, 37° C.) it was 0%; in series [2] (aqueous buffer pH 8.0, 37° C.), 0%; in series [5] it was 4%; in series [4] it was 101%. The entries for the “% of Prodrug Remaining after 60 min” value in series [1], in series [3] and in series [4] were 4%, 3% and 3%, respectively.
Consider `CC(OC(=O)NC[C@H](CC(=O)[O-])c1ccc(Cl)cc1)OC(=O)c1ccccc1.[Na+]` (stereo partly drawn) [(40), Sodium 4-[(1-Benzoyloxyethoxy)carbonylamino]-(3R)-(4-chlorophenyl)-butanoate], for which the “% of Prodrug Remaining after 60 min” value in series [1] is listed as 8%; in series [4] it was 1%. Moreover, the “% of Baclofen Released after 60 min” value in series [2] (aqueous buffer pH 2.0, 37° C.) is recorded as 0%; in series [2] (aqueous buffer pH 7.4, 37° C.) it was 0%; in series [2] (aqueous buffer pH 8.0, 37° C.), 2%; in series [5], 2%.
In the case of `CC(C)C(OC(=O)NC[C@H](CC(=O)[O-])c1ccc(Cl)cc1)OC(=O)C(C)(C)C.[Na+]` (stereo partly drawn) [(43), Sodium 4-[(1-Pivaloyloxyisobutoxy)carbonylamino]-(3R)-(4-chlorophenyl)-butanoate], in series [1], the “% of Prodrug Remaining after 60 min” value is reported as 3%. The “% of Baclofen Released after 60 min” value in series [2] (aqueous buffer pH 2.0, 37° C.) is recorded as 0%; in series [2] (aqueous buffer pH 7.4, 37° C.) it was 0%; in series [2] (aqueous buffer pH 8.0, 37° C.) it was 0%; in series [5] it was 2%; with pancreatin, 4%.
Regarding `CCOC(C)(OCC)C(=O)OCOC(=O)NC[C@H](CC(=O)[O-])c1ccc(Cl)cc1.[Na+]` [(51), Sodium 4-[(2,2-Diethoxypropanoyloxymethoxy)carbonylamino]-(3R)-(4-chlorophenyl)-butanoate], the “% of Prodrug Remaining after 60 min” value in series [1] was 2%; in series [3], 3%; in series [4], 6%. For the same compound, the “% of Baclofen Released after 60 min” value in series [2] (aqueous buffer pH 2.0, 37° C.) is given as 0%; in series [2] (aqueous buffer pH 7.4, 37° C.), 2%; in series [2] (aqueous buffer pH 8.0, 37° C.), 9%; in the series on pancreatin it was 50%; in series [3] it was 100%; in series [4], 91%.
For `O=C([O-])C[C@@H](CNC(=O)OCOC(=O)c1cccs1)c1ccc(Cl)cc1.[Na+]` [(57), Sodium 4-[(2-Thienylcarbonyloxymethoxy)carbonylamino]-(3R)-(4-chlorophenyl)-butanoate], the “% of Prodrug Remaining after 60 min” value in series [1] amounted to 2%; in series [2] (aqueous buffer pH 7.4, 37° C.), 100%; in series [2] (aqueous buffer pH 8.0, 37° C.), 100%; in series [3], 2%; in series [4], 1%. Also, the “% of Baclofen Released after 60 min” value in series [2] (aqueous buffer pH 2.0, 37° C.) turned out to be 0%; in series [2] (aqueous buffer pH 7.4, 37° C.) it was 0%; in series [2] (aqueous buffer pH 8.0, 37° C.) it was 0%.
Take `CC(C)C(=O)OC(OC(=O)NC[C@H](CC(=O)[O-])c1ccc(Cl)cc1)C1CCCCC1.[Na+]` (stereo partly drawn) [(84), Sodium 4-[(1-Isobutanoyloxy-1-cyclohexylmethoxy)carbonylamino]-(3R)-(4-chlorophenyl)-butanoate]: the “% of Baclofen Released after 60 min” value is recorded as 91% in series [1]; 0% in series [2] (aqueous buffer pH 2.0, 37° C.); 0% in series [2] (aqueous buffer pH 7.4, 37° C.); 1% in series [2] (aqueous buffer pH 8.0, 37° C.); 4% in series [5]. The “% of Prodrug Remaining after 60 min” value is reported as 4% in series [1] and 2% in series [4].
Turning to `CCC[C@H](OC(=O)NC[C@H](CC(=O)[O-])c1ccc(Cl)cc1)OC(=O)C(C)C.[Na+]` [(91), Sodium 4-{[(1S)-Isobutanoyloxybutoxy]carbonylamino}-(3R)-(4-chlorophenyl)-butanoate], the “% of Baclofen Released after 60 min” value in series [2] (aqueous buffer pH 2.0, 37° C.) was determined as 0%; in series [2] (aqueous buffer pH 7.4, 37° C.), 0%; in series [2] (aqueous buffer pH 8.0, 37° C.), 1%; in series [5], 2%; in the series with pancreatin it was 78%. In addition, the entries for the “% of Prodrug Remaining after 60 min” value in series [3] and in series [4] were 6% and 1%, respectively.
For the compound `CC(C)C(=O)O[C@@H](OC(=O)NC[C@H](CC(=O)[O-])c1ccc(Cl)cc1)C(C)C.[Na+]` [(92), Sodium 4-{[(1S)-Isobutanoyloxyisobutoxy]carbonylamino}-(3R)-(4-chlorophenyl)-butanoate], the results for the “% of Prodrug Remaining after 60 min” value in series [1] and in series [4] were 6% and 4%, respectively. The “% of Baclofen Released after 60 min” value came out at 0% in series [2] (aqueous buffer pH 2.0, 37° C.); 0% in series [2] (aqueous buffer pH 7.4, 37° C.); 1% in series [2] (aqueous buffer pH 8.0, 37° C.); 1% in series [5]; 7% with pancreatin; 80% in series [4].
For `CC(C)C(=O)O[C@@H](OC(=O)NC[C@H](CC(=O)O)c1ccc(Cl)cc1)C(C)C` [(104)], the “% of Prodrug Remaining after 60 min” value is on record as 3% in series [1]; 100% in series [2] (aqueous buffer pH 7.4, 37° C.); 100% in series [2] (aqueous buffer pH 8.0, 37° C.); 90% in the series with pancreatin; 3% in series [4]. The “% of Baclofen Released after 60 min” value in series [2] (aqueous buffer pH 2.0, 37° C.) was 0%; in series [2] (aqueous buffer pH 7.4, 37° C.), 0%; in series [2] (aqueous buffer pH 8.0, 37° C.) it was 0%; in series [5], 2%; in the series with pancreatin, 6%; in series [4], 97%.

The record behind these values is patent US10385014B2, “Acyloxyalkyl carbamate prodrugs, methods of synthesis and use” (ARBOR PHARMACEUTICALS, LLC, priority 2003, dated 2019).
